From ChEMBL document CHEMBL1201862, “PubChem BioAssay data set” (2004)
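All cell lines were grown in 96-well plates and treated with compound for 48 hours. Abbreviation: GI50, concentration required for 50% inhibition of growth.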 Active and inactive are the calls of the source. Rule as the data show it: active = GI50 up to about 1.1 µM and inactive = higher.

Assays:
Assay in all cases: NCI anticancer screen, dose series, 48 h
[1] = tested on: M14
[2] = tested on: MOLT-4
[3] = tested on: SK-MEL-5
[4] = tested on: M19-MEL
[5] = tested on: HOP-92
[6] = tested on: HL-60
[7] = tested on: Malme-3M
[8] = tested on: A498
[9] = tested on: NCI-H522
[10] = tested on: HOP-62
[11] = tested on: ACHN
[12] = tested on: DMS-273
[13] = tested on: SW-620
[14] = tested on: UACC-62
[15] = tested on: KM12
[16] = tested on: LXFL 529
[17] = tested on: SK-OV-3
[18] = tested on: SF-539
[19] = tested on: OVCAR-4
[20] = tested on: SNB-75
[21] = tested on: NCI-H23
[22] = tested on: K562
[23] = tested on: DMS-114
[24] = tested on: TK-10
[25] = tested on: RPMI-8226
[26] = tested on: SNB-19
[27] = tested on: SNB-78
[28] = tested on: SF-268
[29] = tested on: UO-31
[30] = tested on: EKVX
[31] = tested on: DLD-1
[32] = tested on: CCRF-CEM
[33] = tested on: KM-20L2
[34] = tested on: A549
[35] = tested on: NCI-H226
[36] = tested on: COLO 205
[37] = tested on: SN12C
[38] = tested on: NCI-H460
[39] = tested on: U-251
[40] = tested on: 786-0
[41] = tested on: HCT-116
[42] = tested on: HOP-18
[43] = tested on: LOX IMVI
[44] = tested on: UACC-257
[45] = tested on: SK-MEL-2
[46] = tested on: HCT-15
[47] = tested on: OVCAR-8
[48] = tested on: OVCAR-5
[49] = tested on: OVCAR-3
[50] = tested on: CAKI-1
[51] = tested on: SK-MEL-28
[52] = tested on: IGROV-1
[53] = tested on: HT-29
[54] = tested on: XF498
[55] = tested on: SF-295
[56] = tested on: RXF 393
[57] = tested on: HCC 2998
[58] = tested on: SR

Compound: COc1ccc(C23c4ccc(OC)cc4CC2(c2ccc([N+](=O)[O-])cc2)Cc2cc(OC)ccc23)cc1 (configuration not stated)
- GI50 [1]: > 46.2 µM (inactive)
- GI50 [2]: > 36.2 µM (inactive)
- GI50 [3]: > 21.7 µM (inactive)
- GI50 [4]: > 35.2 µM (inactive)
- GI50 [5]: > 21.9 µM (inactive)
- GI50 [6]: > 55 µM (inactive)
- GI50 [7]: > 38.2 µM (inactive)
- GI50 [8]: > 29.7 µM (inactive)
- GI50 [9]: > 59.8 µM (inactive)
- GI50 [10]: > 14.1 µM (inactive)
- GI50 [11]: > 39.4 µM (inactive)
- GI50 [12]: > 62.2 µM (inactive)
- GI50 [13]: > 100 µM (inactive)
- GI50 [14]: > 17.1 µM (inactive)
- GI50 [15]: > 35.8 µM (inactive)
- GI50 [16]: > 54.5 µM (inactive)
- GI50 [17]: > 28.2 µM (inactive)
- GI50 [18]: > 14.2 µM (inactive)
- GI50 [19]: > 25.1 µM (inactive)
- GI50 [20]: > 83.6 µM (inactive)
- GI50 [21]: > 26.4 µM (inactive)
- GI50 [22]: > 37.6 µM (inactive)
- GI50 [23]: > 50 µM (inactive)
- GI50 [24]: > 92.5 µM (inactive)
- GI50 [25]: > 27.4 µM (inactive)
- GI50 [26]: > 71.4 µM (inactive)
- GI50 [27]: > 100 µM (inactive)
- GI50 [28]: > 22.3 µM (inactive)
- GI50 [29]: > 24.3 µM (inactive)
- GI50 [30]: > 15.2 µM (inactive)
- GI50 [31]: > 22.8 µM (inactive)
- GI50 [32]: > 40.9 µM (inactive)
- GI50 [33]: > 15.7 µM (inactive)
- GI50 [34]: > 21.2 µM (inactive)
- GI50 [35]: > 57.1 µM (inactive)
- GI50 [36]: > 36.2 µM (inactive)
- GI50 [37]: > 50.6 µM (inactive)
- GI50 [38]: > 89.1 µM (inactive)
- GI50 [39]: > 50.1 µM (inactive)
- GI50 [40]: > 100 µM (inactive)
- GI50 [41]: > 37.2 µM (inactive)
- GI50 [42]: 1.17 µM (inactive)
- GI50 [43]: > 21.3 µM (inactive)
- GI50 [44]: > 51.3 µM (inactive)
- GI50 [45]: > 74.1 µM (inactive)
- GI50 [46]: > 93.5 µM
- GI50 [47]: > 36.7 µM (inactive)
- GI50 [48]: > 25.9 µM (inactive)
- GI50 [49]: > 39.2 µM (inactive)
- GI50 [50]: > 27.2 µM (inactive)
- GI50 [51]: > 17.9 µM (inactive)
- GI50 [52]: > 21.5 µM (inactive)
- GI50 [53]: > 23.3 µM (inactive)
- GI50 [54]: > 100 µM (inactive)

Compound: COc1nc(NC2OC(COC(C)=O)C(OC(C)=O)C(OC(C)=O)C2OC(C)=O)c2c(OC(C)=O)cc(=O)oc2n1 (configuration not stated)
- GI50 [1]: > 100 µM (inactive)
- GI50 [55]: > 100 µM (inactive)
- GI50 [2]: > 100 µM (inactive)
- GI50 [3]: > 100 µM (inactive)
- GI50 [4]: > 100 µM (inactive)
- GI50 [5]: > 100 µM (inactive)
- GI50 [6]: > 100 µM (inactive)
- GI50 [7]: > 100 µM (inactive)
- GI50 [8]: 15.9 µM (inactive)
- GI50 [10]: > 100 µM (inactive)
- GI50 [11]: 12.5 µM (inactive)
- GI50 [12]: > 100 µM (inactive)
- GI50 [13]: > 100 µM (inactive)
- GI50 [14]: > 100 µM (inactive)
- GI50 [15]: > 100 µM (inactive)
- GI50 [16]: > 100 µM (inactive)
- GI50 [17]: > 100 µM (inactive)
- GI50 [18]: > 100 µM (inactive)
- GI50 [19]: > 100 µM (inactive)
- GI50 [20]: > 100 µM (inactive)
- GI50 [21]: > 100 µM (inactive)
- GI50 [22]: > 100 µM (inactive)
- GI50 [23]: > 100 µM (inactive)
- GI50 [24]: > 100 µM (inactive)
- GI50 [25]: > 100 µM (inactive)
- GI50 [26]: > 100 µM (inactive)
- GI50 [27]: > 100 µM (inactive)
- GI50 [29]: > 100 µM (inactive)
- GI50 [56]: > 100 µM (inactive)
- GI50 [30]: > 100 µM (inactive)
- GI50 [31]: > 100 µM (inactive)
- GI50 [32]: > 100 µM (inactive)
- GI50 [33]: > 100 µM (inactive)
- GI50 [34]: > 100 µM (inactive)
- GI50 [35]: > 100 µM (inactive)
- GI50 [36]: > 100 µM (inactive)
- GI50 [37]: > 100 µM (inactive)
- GI50 [38]: 13.8 µM (inactive)
- GI50 [39]: > 100 µM (inactive)
- GI50 [40]: > 100 µM (inactive)
- GI50 [41]: > 100 µM (inactive)
- GI50 [42]: > 100 µM (inactive)
- GI50 [43]: > 100 µM (inactive)
- GI50 [44]: > 100 µM (inactive)
- GI50 [45]: > 100 µM (inactive)
- GI50 [46]: > 100 µM
- GI50 [47]: > 100 µM (inactive)
- GI50 [57]: > 100 µM (inactive)
- GI50 [48]: > 100 µM (inactive)
- GI50 [49]: > 100 µM (inactive)
- GI50 [50]: > 100 µM (inactive)
- GI50 [52]: > 100 µM (inactive)
- GI50 [53]: > 100 µM (inactive)
- GI50 [54]: > 100 µM (inactive)

Compound: CC/C(C)=C1\CCC(CN2CCOCC2)C1=O (configuration not stated)
- GI50 [1]: 17.3 µM (inactive)
- GI50 [55]: > 100 µM (inactive)
- GI50 [2]: 22.5 µM (inactive)
- GI50 [3]: 28.5 µM (inactive)
- GI50 [4]: 14.9 µM (inactive)
- GI50 [5]: 14.6 µM (inactive)
- GI50 [6]: 15.1 µM (inactive)
- GI50 [7]: 17.7 µM (inactive)
- GI50 [8]: 21.2 µM (inactive)
- GI50 [10]: 23.1 µM (inactive)
- GI50 [11]: 7.18 µM (inactive)
- GI50 [12]: 18.1 µM (inactive)
- GI50 [13]: 15.1 µM (inactive)
- GI50 [14]: 17.6 µM (inactive)
- GI50 [15]: 24.3 µM (inactive)
- GI50 [16]: 11.2 µM (inactive)
- GI50 [18]: 20.2 µM (inactive)
- GI50 [19]: 17.6 µM (inactive)
- GI50 [20]: 25.2 µM (inactive)
- GI50 [21]: 13.8 µM (inactive)
- GI50 [22]: 7.46 µM (inactive)
- GI50 [23]: 5.26 µM (inactive)
- GI50 [24]: 14.5 µM (inactive)
- GI50 [25]: 2.21 µM (inactive)
- GI50 [26]: 47.9 µM (inactive)
- GI50 [27]: 21.8 µM (inactive)
- GI50 [28]: 11.5 µM (inactive)
- GI50 [29]: 21.6 µM (inactive)
- GI50 [56]: 6.78 µM (inactive)
- GI50 [30]: 18.7 µM (inactive)
- GI50 [31]: 11.9 µM (inactive)
- GI50 [32]: 7.91 µM (inactive)
- GI50 [33]: 19.2 µM (inactive)
- GI50 [34]: 21.2 µM (inactive)
- GI50 [35]: 82.2 µM (inactive)
- GI50 [37]: 8.69 µM (inactive)
- GI50 [38]: 17.8 µM (inactive)
- GI50 [40]: 10.1 µM (inactive)
- GI50 [41]: 13.9 µM (inactive)
- GI50 [42]: 19 µM (inactive)
- GI50 [43]: 16.4 µM (inactive)
- GI50 [44]: 17.3 µM (inactive)
- GI50 [45]: 17.8 µM (inactive)
- GI50 [46]: 13.4 µM
- GI50 [47]: 20.7 µM (inactive)
- GI50 [57]: 24.2 µM (inactive)
- GI50 [48]: 17.5 µM (inactive)
- GI50 [49]: 15 µM (inactive)
- GI50 [58]: 11.2 µM (inactive)
- GI50 [50]: 2.47 µM (inactive)
- GI50 [51]: 17.4 µM (inactive)
- GI50 [52]: 20.4 µM (inactive)
- GI50 [53]: 15.6 µM (inactive)
- GI50 [54]: 19.1 µM (inactive)
